Measurements from publication PMC6539903 (Molecules, 2019).

What was measured:
[1] = target: T1, COX-1 (Homo sapiens, UniProt P23219); test: COX-1 inhibition assay (COX-1 ELISA kit); format: biochemical; settings: mean of four determinations; read-out: IC50 ± SD COX-1
T1 construct: purchased Cayman Chemical 701170
Procedure: (§1) 3-(4,5-Dimethylthiazol-2-yl)-2,5-diphenyltetrazolium (MTT) were purchased from Beyotime Institute of Biotechnology (Haimen, China). Annexcin V-FITC cell apoptosis assay kit (catalog No.BA11100) was purchased from BIO-BOX (Nanjing, China). Fibronectin (#F1056) and laminin (#L2020) were purchased from Sigma-Aldrich (St. Louis, MO, USA).
(§2) Then 1 M HCl was added to the reaction mixture to stop the reaction, and one-tenth of the volume of saturated stannous chloride (50 mg/mL) was added. The reaction mixture was incubated at room temperature for 5 min, and PGF2 and PGH2 were produced.

[2] = target: T2, COX-2 (Homo sapiens, UniProt P35354); test: COX-2 inhibition assay (COX-2 ELISA kit); format: biochemical; settings: for Selectivity Index (SI) (COX-1 IC50/COX-2 IC50): in vitro COX-2 selectivity index; for IC50: mean of four determinations, read-out: IC50 ± SD COX-2
T2 construct: purchased Cayman Chemical 701180
T2 sequence (P35354 18-604): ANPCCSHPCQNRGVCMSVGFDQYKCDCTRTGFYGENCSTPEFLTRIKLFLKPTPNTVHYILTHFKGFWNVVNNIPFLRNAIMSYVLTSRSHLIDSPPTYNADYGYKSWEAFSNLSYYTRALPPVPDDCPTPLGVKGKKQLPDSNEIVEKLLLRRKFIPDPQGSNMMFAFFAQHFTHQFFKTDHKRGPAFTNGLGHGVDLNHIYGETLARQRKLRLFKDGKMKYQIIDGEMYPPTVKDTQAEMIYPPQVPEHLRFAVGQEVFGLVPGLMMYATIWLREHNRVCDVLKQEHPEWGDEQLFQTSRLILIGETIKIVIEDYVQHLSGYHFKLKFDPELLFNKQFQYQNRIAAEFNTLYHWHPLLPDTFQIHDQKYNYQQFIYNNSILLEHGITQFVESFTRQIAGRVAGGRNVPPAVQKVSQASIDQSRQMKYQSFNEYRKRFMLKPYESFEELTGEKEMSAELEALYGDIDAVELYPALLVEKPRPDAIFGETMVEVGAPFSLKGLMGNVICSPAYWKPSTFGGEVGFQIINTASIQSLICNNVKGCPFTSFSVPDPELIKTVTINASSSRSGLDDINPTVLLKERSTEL
Procedure: as §1, §2

[3] = test system: SW620 cells; test: MTT antiproliferation assay, SW620; format: cell-based; settings: Homo sapiens, SW-620, 48 h, n = 3, read-out: IC50 ± SD SW620
Procedure: (§3) MCF-7 (human breast cell line), HeLa (human cervical cell line), A549 (human lung cell line), HepG2 (human liver cell line), SW620 (human colorectal cell line) and a non-cancer cell line, NCM460 (Human colonic epithelial cells) were preserved at the State Key Laboratory of Pharmaceutical Biotechnology, Nanjing University (Nanjing, China).
(§4) The antiproliferative activity of the synthetic compounds against the SW620, MCF-7, HeLa, A549, HepG2, and NUM460 cell lines was evaluated by a colorimetric assay based on a modified standard (MTT). […] Thereafter, MTT (5 mg/mL in PBS) was added to each well and incubated for 4 h. 150 μL of DMSO was added to each well and shaken with a shaker. The absorbance (OD 570 nm) was read at 630 nm on an ELISA reader (ELx800, BioTek, montpelier, VT, USA). IC50 values for the compounds were calculated by comparison to DMSO treated control wells. Three replicate wells were used for each drug concentration. Each assay was performed three times.

[4] = test system: MCF-7; test: MTT antiproliferation assay, MCF-7; format: cell-based; settings: Homo sapiens, MCF7, 48 h, n = 3, read-out: IC50 ± SD MCF-7
Procedure: as §3, §4

[5] = test system: HeLa; test: MTT antiproliferation assay, HeLa; format: cell-based; settings: Homo sapiens, 48 h, n = 3, read-out: IC50 ± SD HeLa
Procedure: as §3, §4

[6] = test system: A549; test: MTT antiproliferation assay, A549; format: cell-based; settings: Homo sapiens, 48 h, n = 3, read-out: IC50 ± SD A549
Procedure: as §3, §4

[7] = test system: HepG2; test: MTT antiproliferation assay, HepG2; format: cell-based; settings: Homo sapiens, 48 h, n = 3, read-out: IC50 ± SD HepG2
Procedure: as §3, §4

[8] = MTT cytotoxicity assay, non-cancer colon cells; format: cell-based; settings: human, NCM460 colonic epithelial cells (non-cancer cell line), n = 3, non-cancer cell line, read-out: CC50 ± SD NUM460
Procedure: Besides, the MTT assay was performed on a non-cancer line NCM460 to assess the cytotoxicity of the test compound to normal colon cells.
as §3, §4

T1 sequence (P23219 24-599): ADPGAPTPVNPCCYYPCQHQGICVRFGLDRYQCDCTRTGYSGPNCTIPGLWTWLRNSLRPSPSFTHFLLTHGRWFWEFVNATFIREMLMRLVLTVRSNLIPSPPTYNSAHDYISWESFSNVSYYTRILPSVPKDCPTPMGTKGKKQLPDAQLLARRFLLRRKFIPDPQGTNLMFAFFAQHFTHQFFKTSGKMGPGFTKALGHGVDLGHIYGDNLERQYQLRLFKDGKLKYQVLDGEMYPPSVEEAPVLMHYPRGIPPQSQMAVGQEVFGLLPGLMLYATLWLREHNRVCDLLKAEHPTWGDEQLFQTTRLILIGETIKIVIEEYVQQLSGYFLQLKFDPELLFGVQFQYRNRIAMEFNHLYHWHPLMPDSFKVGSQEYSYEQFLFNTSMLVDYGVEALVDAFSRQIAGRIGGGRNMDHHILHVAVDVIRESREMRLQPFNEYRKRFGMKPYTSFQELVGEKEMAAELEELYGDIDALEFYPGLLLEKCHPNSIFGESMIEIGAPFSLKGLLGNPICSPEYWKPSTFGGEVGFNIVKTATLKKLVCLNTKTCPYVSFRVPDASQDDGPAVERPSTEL

IC50 [1] [µM] | Selectivity Index (SI) (COX-1 IC50/COX-2 IC50) [2] | IC50 [2] [µM] | IC50 [3] [µM] | IC50 [4] [µM] | IC50 [5] [µM] | IC50 [6] [µM] | IC50 [7] [µM] | melting point [°C] | Structure (SMILES) | CC50 at 48 h [8] [µM]
> 60 | >30.30 | 1.98 ± 0.15 | 4.96 ± 0.38 | 8.14 ± 0.69 | 9.16 ± 0.37 | 6.71 ± 0.57 | 13.3 ± 0.89 | 180 to 182 | Cc1ccc(C2=NN(c3ccc(S(N)(=O)=O)cc3)C(c3ccc4c(c3)OCO4)C2)c(C)c1 (centres unmarked) [Compound 4i, 4-(5-(Benzo[d][1,3]dioxol-5-yl)-3-(2,4-dimethylphenyl)-4,5-dihydro-1H-pyrazol-1-yl)benzenesulfonamide] | 155 ± 12.7
> 60 | >33.15 | 1.81 ± 0.09 | 4.54 ± 0.29 | 7.51 ± 0.57 | 8.41 ± 0.29 | 5.86 ± 0.36 | 11.8 ± 0.96 | 180 to 181 | NS(=O)(=O)c1ccc(N2N=C(c3ccccc3F)CC2c2ccc3c(c2)OCO3)cc1 (centres unmarked) [Compound 4j, 4-(5-(Benzo[d][1,3]dioxol-5-yl)-3-(2-fluorophenyl)-4,5-dihydro-1H-pyrazol-1-yl)benzenesulfonamide] | 137 ± 12.7
> 60 | >32.97 | 1.82 ± 0.16 | 4.56 ± 0.14 | 7.54 ± 0.42 | 8.44 ± 0.48 | 5.92 ± 0.31 | 11.9 ± 0.91 | 156 to 157 | NS(=O)(=O)c1ccc(N2N=C(c3ccccc3)CC2c2ccc3c(c2)OCCO3)cc1 (centres unmarked) [Compound 4k, 4-(5-(2,3-Dihydrobenzo[b][1,4]dioxin-6-yl)-3-phenyl-4,5-dihydro-1H-pyrazol-1-yl)benzenesulfonamide] | 138 ± 11
43.87 ± 0.37 | 46.67 | – | 2.35 ± 0.11 | 4.22 ± 0.16 | 4.46 ± 0.36 | 2.58 ± 0.18 | 5.92 ± 0.39 | 153 to 154 | Cc1ccc(C2=NN(c3ccc(S(N)(=O)=O)cc3)C(c3ccc4c(c3)OCCO4)C2)cc1 (centres unmarked) [Compound 4l, 4-(5-(2,3-Dihydrobenzo[b][1,4]dioxin-6-yl)-3-(p-tolyl)-4,5-dihydro-1H-pyrazol-1-yl)benzenesulfonamide] | 68.7 ± 5.28
> 60 | >39.47 | 1.52 ± 0.09 | 3.88 ± 0.37 | 6.52 ± 0.33 | 7.22 ± 0.19 | 4.54 ± 0.29 | 9.44 ± 0.77 | 207 to 208 | COc1ccc(C2=NN(c3ccc(S(N)(=O)=O)cc3)C(c3ccc4c(c3)OCCO4)C2)cc1 (centres unmarked) [Compound 4m, 4-(5-(2,3-Dihydrobenzo[b][1,4]dioxin-6-yl)-3-(4-methoxyphenyl)-4,5-dihydro-1H-pyrazol-1-yl)benzenesulfonamide] | 110 ± 7.42
> 60 | >24.59 | 2.44 ± 0.19 | 6.12 ± 0.49 | 9.88 ± 0.86 | 11.2 ± 0.86 | 6.81 ± 0.55 | 13.5 ± 0.59 | 193 to 194 | CCOc1ccc(C2=NN(c3ccc(S(N)(=O)=O)cc3)C(c3ccc4c(c3)OCCO4)C2)cc1 (centres unmarked) [Compound 4n, 4-(5-(2,3-Dihydrobenzo[b][1,4]dioxin-6-yl)-3-(4-ethoxyphenyl)-4,5-dihydro-1H-pyrazol-1-yl)benzenesulfonamide] | 157 ± 9.98
38.41 ± 0.34 | 25.10 | 1.53 ± 0.12 | 3.83 ± 0.27 | 6.44 ± 0.37 | 7.12 ± 0.69 | 4.43 ± 0.33 | 9.24 ± 0.74 | 195 to 196 | NS(=O)(=O)c1ccc(N2N=C(c3ccc(F)cc3)CC2c2ccc3c(c2)OCCO3)cc1 (centres unmarked) [Compound 4o, 4-(5-(2,3-Dihydrobenzo[b][1,4]dioxin-6-yl)-3-(4-fluorophenyl)-4,5-dihydro-1H-pyrazol-1-yl)benzenesulfonamide] | 107 ± 9.21
37.32 ± 0.18 | 26.46 | 1.41 ± 0.07 | 3.53 ± 0.16 | 5.99 ± 0.38 | 6.58 ± 0.49 | 3.83 ± 0.26 | 8.16 ± 0.63 | 146 to 148 | NS(=O)(=O)c1ccc(N2N=C(c3ccc(Cl)cc3)CC2c2ccc3c(c2)OCCO3)cc1 (centres unmarked) [Compound 4p, 4-(3-(4-Chlorophenyl)-5-(2,3-dihydrobenzo[b][1,4]dioxin-6-yl)-4,5-dihydro-1H-pyrazol-1-yl)benzenesulfonamide] | 94.7 ± 3.65
26.64 ± 0.26 | 20.98 | 1.27 ± 0.03 | 3.18 ± 0.19 | 5.47 ± 0.29 | 5.96 ± 0.39 | 3.14 ± 0.25 | 6.92 ± 0.28 | 153 to 154 | NS(=O)(=O)c1ccc(N2N=C(c3ccc(Br)cc3)CC2c2ccc3c(c2)OCCO3)cc1 (centres unmarked) [Compound 4q, 4-(3-(4-Bromophenyl)-5-(2,3-dihydrobenzo[b][1,4]dioxin-6-yl)-4,5-dihydro-1H-pyrazol-1-yl)benzenesulfonamide] | 80.3 ± 8.01
41.18 ± 0.17 | 47.33 | – | 2.17 ± 0.05 | 3.95 ± 0.18 | 4.14 ± 0.21 | 3.12 ± 0.08 | 3.28 ± 0.17 | 187 to 189 | NS(=O)(=O)c1ccc(N2N=C(c3ccc(I)cc3)CC2c2ccc3c(c2)OCCO3)cc1 (centres unmarked) [Compound 4r, 4-(5-(2,3-Dihydrobenzo[b][1,4]dioxin-6-yl)-3-(4-iodophenyl)-4,5-dihydro-1H-pyrazol-1-yl)benzenesulfonamide] | 38 ± 1.19
> 60 | >33.33 | 1.8 ± 0.05 | 4.54 ± 0.31 | 7.51 ± 0.47 | 8.41 ± 0.17 | 5.86 ± 0.47 | 11.8 ± 0.59 | 166 to 168 | Cc1ccc(C2=NN(c3ccc(S(N)(=O)=O)cc3)C(c3ccc4c(c3)OCCO4)C2)cc1C (centres unmarked) [Compound 4s, 4-(5-(2,3-Dihydrobenzo[b][1,4]dioxin-6-yl)-3-(3,4-dimethylphenyl)-4,5-dihydro-1H-pyrazol-1-yl)benzenesulfonamide] | 137 ± 3.98
> 60 | >40.54 | 1.48 ± 0.02 | 3.74 ± 0.12 | 6.31 ± 0.39 | 6.97 ± 0.51 | 4.26 ± 0.19 | 8.94 ± 0.67 | 159 to 161 | Cc1cc(C2=NN(c3ccc(S(N)(=O)=O)cc3)C(c3ccc4c(c3)OCCO4)C2)ccc1F (centres unmarked) [Compound 4t, 4-(5-(2,3-Dihydrobenzo[b][1,4]dioxin-6-yl)-3-(4-fluoro-3-methylphenyl)-4,5-dihydro-1H-pyrazol-1-yl)benzenesulfonamide] | 104 ± 4.74
> 60 | >22.73 | 2.64 ± 0.17 | 6.63 ± 0.42 | 10.6 ± 0.67 | 12.2 ± 0.85 | 7.81 ± 0.37 | 15.3 ± 1.09 | 146 to 147 | COc1cccc(C2=NN(c3ccc(S(N)(=O)=O)cc3)C(c3ccc4c(c3)OCCO4)C2)c1 (centres unmarked) [Compound 4u, 4-(5-(2,3-Dihydrobenzo[b][1,4]dioxin-6-yl)-3-(3-methoxyphenyl)-4,5-dihydro-1H-pyrazol-1-yl)benzenesulfonamide] | 178 ± 10.7
